Measurements as given in US10160743B2, “Sulphamoylthiophenamide derivatives and the use thereof as medicaments for the treatment of hepatitis B” (Janssen Sciences Ireland UC, priority 2013, dated 2018).

Legend:
HepG2 cells = test: Cytotoxicity in HepG2 cells, Resazurin assay; assay type: cell-based; conditions: incubated for 4 days, Resazurin viability
HBV [1] = test: Anti-HBV activity, HepG2.117 cell line (Tet-off), intracellular HBV DNA by realtime PCR; assay type: cell-based, Hepatitis B virus; conditions: HepG2.117 cells, 3 days of treatment
HBV [2] = test: Anti-HBV activity, HepG2.2.15 cell line, HBV DNA from secreted virions by realtime PCR; assay type: cell-based, Hepatitis B virus; conditions: HepG2.2.15 cells, 6 days of treatment
[3] = Cytotoxicity in HepG2 cells, Resazurin assay; assay type: cell-based; conditions: human, incubated for 4 days, Resazurin viability
[4] = Hepatitis B virus, HepG2.117, 72 h
[5] = Hepatitis B virus, HepG2.2.15, 144 h

Structure (SMILES) | CC50 (HepG2 cells) [nM] | EC50 (HBV [1]) [nM] | EC50 (HBV [2]) [nM] | CC50 at 4 days [3] [nM] | EC50 (HBV [1]; [4]) [nM] | EC50 (HBV [2]; [5]) [nM]
Cc1cc(NC(=O)c2cc(S(=O)(=O)NC3(C)CCOC3)sc2C)ccc1F (racemic) [Compound 16a, N-(4-fluoro-3-methyl-phenyl)-2-methyl-5-[(3-methyltetrahydrofuran-3yl)sulfamoyl]thiophene-3-carboxamide] | > 25000 | 87 | 75 |  |  | 
Cc1cc(NC(=O)c2cc(S(=O)(=O)NC3(C)CCOC3)sc2C)ccc1F (racemic) [Compound 16b, N-(4-fluoro-3-methyl-phenyl)-2-methyl-5-[(3-methyltetrahydrofuran-3yl)sulfamoyl]thiophene-3-carboxamide] | > 25000 | 26 | 28 |  |  | 
Cc1sc(S(=O)(=O)NC(C)(C)C)cc1C(=O)Nc1cccc(C(F)(F)F)c1 [Compound 21, 5-(tert-butylsulfamoyl)-2-methyl-N-[3-(trifluoromethyl)phenyl]thiophene-3-carboxamide] |  |  |  | 10500 | > 1000 | 320
Cc1cc(NC(=O)c2ccc(S(=O)(=O)N[C@H]3CCOC3)s2)ccc1F [Compound 13, N-(4-fluoro-3-methyl-phenyl)-5-[[(3S)-tetrahydrofuran-3-yl]-sulfamoyl]thiophene-2-carboxamide] |  |  |  | > 25000 | 940 | 1700
Cc1cc(NC(=O)c2cc(S(=O)(=O)N[C@H]3CCOC3)sc2Cl)ccc1F [Compound 4, 2-chloro-N-(4-fluoro-3-methyl-phenyl)-5-[[(3S)-tetrahydrofuran-3-yl]-sulfamoyl]thiophene-3-carboxamide] |  |  |  | > 25000 | 560 | 570
Cc1sc(S(=O)(=O)N[C@H](C)C(C)(F)F)cc1C(=O)Nc1ccc(F)c(F)c1 [Compound 55, 5-[[(1R)-2,2-difluoro-1-methyl-propyl]sulfamoyl]-N-(3,4-difluorophenyl)-2-methyl-thiophene-3-carboxamide] |  |  |  | 14600 | 90 | 32
